From patent US10883992B2, “Universal kinase substrates and methods of use thereof” (Regents of the University of Minnesota, priority 2018, dated 2021)
“Also recorded” adds a separate entry of the source. Ends that are not written are not given here. Peptide text beside a SMILES is read from it. * marks the point of attachment. Biotin = O=C1N[C@H]2[C@H](CS[C@H]2CCCCC(=O)*)N1

Columns and labels:
Format in all cases: biochemical
[1] = test system: panel of 15 PTKs; experiment: Universal kinase substrate screen of the pilot library, [γ-33P]ATP incorporation; conditions: biotinylated peptides 10 μM; for phosphorylation by the panel of PTKs: 50 μM ATP, 30° C., 30 min, 15 PTKs; for average phosphorylation across the kinase panel: averaged over 15 PTKs (FIG. 1B)
Description: This pilot library was then subjected to an initial screen to test their phosphorylation by a panel of 15 PTKs that included 12 non-receptor TKs (representing all 10 NRTK families) and 3 receptor TKs (representing 3 RTK families). Pilot peptides were assayed alongside several previously reported substrates that were designed to be specific to individual kinases. Conversion to product was monitored via incorporation of phosphate from [γ-^33P] radiolabeled adenosine triphosphate (ATP). These intensities were normalized to background and visualized as a heat map in FIG. 1. […] By contrast, as previously reported, peptides that had been designed to specifically target individual kinases had more restricted reactivity.
(§1) Biotinylated peptides (10 μM final concentration) were arrayed in a 384-well plate in 18 μL reaction buffer (50 mM HEPES, pH 7.5, 150 mM NaCl, 10 mM MgCl2, 1 mM DTT, 0.1% v/v Tween-20). Reactions were initiated by adding […] kinase (to 3-9 ng/μL) and [γ-^33P] ATP (to 50 μM, 0.025 μCi/μL) in reaction buffer. Plates were sealed and incubated at 30° C. for 30 min, and then 2 μL aliquots were transferred to streptavidin membrane (Promega SAM2 biotin capture membrane) using a pin-tool. […] Incorporation of radiolabel was quantified by phosphor imaging using QuantityOne software (Bio-Rad). After background correction, data were normalized such that the peptide with the greatest signal was 100%. Normalized data from at least two separate experiments were averaged and converted to heatmaps using Excel (Microsoft).

[2] = target: T1, Abl (Homo sapiens, UniProt P00519); experiment: Michaelis-Menten kinetic analysis of substrate peptides, [γ-33P]ATP radiolabel incorporation
T1 construct: purchased Life Technologies
T1 sequence (P00519 whole entry): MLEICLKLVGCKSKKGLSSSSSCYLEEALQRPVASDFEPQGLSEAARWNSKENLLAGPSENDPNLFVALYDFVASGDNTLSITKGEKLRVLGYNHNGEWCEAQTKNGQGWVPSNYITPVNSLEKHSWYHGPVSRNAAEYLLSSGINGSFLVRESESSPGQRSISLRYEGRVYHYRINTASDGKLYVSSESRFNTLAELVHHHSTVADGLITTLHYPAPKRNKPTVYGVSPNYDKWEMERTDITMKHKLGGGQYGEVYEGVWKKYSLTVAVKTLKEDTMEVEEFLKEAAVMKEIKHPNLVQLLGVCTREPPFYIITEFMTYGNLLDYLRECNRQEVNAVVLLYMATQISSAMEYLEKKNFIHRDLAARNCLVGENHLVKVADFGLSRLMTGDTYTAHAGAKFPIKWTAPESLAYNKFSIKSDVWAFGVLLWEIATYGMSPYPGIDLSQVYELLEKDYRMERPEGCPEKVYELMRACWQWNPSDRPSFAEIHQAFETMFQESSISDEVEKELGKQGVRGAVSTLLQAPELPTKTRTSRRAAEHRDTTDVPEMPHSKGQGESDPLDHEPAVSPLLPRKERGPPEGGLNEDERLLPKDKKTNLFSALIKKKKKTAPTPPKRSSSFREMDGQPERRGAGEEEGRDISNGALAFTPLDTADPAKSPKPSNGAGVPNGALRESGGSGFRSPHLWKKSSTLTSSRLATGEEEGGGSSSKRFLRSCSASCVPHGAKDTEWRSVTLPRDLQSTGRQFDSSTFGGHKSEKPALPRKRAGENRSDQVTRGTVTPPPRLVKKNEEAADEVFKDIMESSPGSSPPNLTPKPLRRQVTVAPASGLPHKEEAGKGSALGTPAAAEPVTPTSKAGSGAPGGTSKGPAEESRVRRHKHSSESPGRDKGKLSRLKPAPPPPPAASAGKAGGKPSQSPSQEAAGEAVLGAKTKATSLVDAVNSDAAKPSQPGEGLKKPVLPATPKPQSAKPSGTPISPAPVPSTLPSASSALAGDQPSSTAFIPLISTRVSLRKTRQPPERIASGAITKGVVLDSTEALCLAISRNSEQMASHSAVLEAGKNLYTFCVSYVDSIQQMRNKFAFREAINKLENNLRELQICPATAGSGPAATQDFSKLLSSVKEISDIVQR
Description: (§2) The mammalian expression vector to produce the intracellular portion of human FLT3 fused to GST (GST-FLT3^564-993) was generated by PCR amplifying the encoding sequence and subcloning into the BamHI and NotI sites of pEBG-2T. Mammalian expression vectors to produce BTK, SRC and SYK as GST fusion proteins were previously described. GST-tagged kinases were expressed in HEK293T cells and purified by affinity chromatography using glutathione Sepharose 4B as described (Deng, et al., Journal of Proteome Research 2014, 13, 4339). His6-EGFR^672-998 (“His6” disclosed SEQ ID NO: 25) and His6-ALK^1090-1416 (“His6” disclosed SEQ ID NO: 25) were expressed and purified from Sf9 insect cells as described (Park, et al., Biochemical Journal 2012, 448, 417; Bresler, et al., Science Translational Medicine 2011, 3, 108ra114). Human ABL was purchased from Life Technologies.
as §1
(§3) Final kinase concentrations were as follows: 0.3 ng/μL for ABL, BTK, SRC and SYK; 1.5 ng/μL for FLT3; 2.7 ng/μL for ALK and EGFR. At various incubation times (10, 20 and 30 min), 2 μL aliquots were transferred using a pin tool to P81 phosphocellulose paper (Reaction Biology), which was washed three times in 75 mM H3PO4, briefly washed in acetone and allowed to dry before exposing to a phosphor screen. Incorporation of radiolabel into peptides was quantified as above. After background correction, initial rates of reaction were determined by linear regression and fit to the Michaelis-Menten equation using Prism (GraphPad). […] Reported kinetic parameters are the average of three separate experiments except for FLT3 (two experiments).

[3] = target: T2, Src (Homo sapiens, UniProt P12931); experiment: as above; conditions: for kcat: lower limit extrapolated from kcat/Km
T2 construct: GST; made in house; host or cells: HEK293T cells
Description: as §2, §1, §3

[4] = target: T3, Syk (Homo sapiens, UniProt P43405); experiment: as above
T3 construct: GST; made in house; host or cells: HEK293T cells
Description: as §2, §1, §3

[5] = target: T4, FLT3 (GST-FLT3 564-993) (Homo sapiens, UniProt P36888); experiment: as above; conditions: for kcat: mean ± sem of fits
T4 construct: human FLT3 fused to GST (GST-FLT3^564-993); GST (N); made in house; host or cells: HEK293T cells
T4 sequence (P36888 564-993): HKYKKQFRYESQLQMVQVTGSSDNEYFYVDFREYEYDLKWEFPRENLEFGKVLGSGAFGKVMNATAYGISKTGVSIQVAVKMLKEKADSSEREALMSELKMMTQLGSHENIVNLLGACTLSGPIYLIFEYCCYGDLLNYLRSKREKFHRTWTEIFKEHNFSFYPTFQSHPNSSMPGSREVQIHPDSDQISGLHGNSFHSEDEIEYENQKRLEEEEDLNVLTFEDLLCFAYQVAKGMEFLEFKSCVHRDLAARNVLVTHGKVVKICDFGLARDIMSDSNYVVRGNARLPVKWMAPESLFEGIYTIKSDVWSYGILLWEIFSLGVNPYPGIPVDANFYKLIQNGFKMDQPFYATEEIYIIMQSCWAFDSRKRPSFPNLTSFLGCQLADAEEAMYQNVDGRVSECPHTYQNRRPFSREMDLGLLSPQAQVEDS
Description: as §2, §1, §3

[6] = target: T5, ALK (His6-ALK 1090-1416) (Homo sapiens, UniProt Q9UM73); experiment: as above; conditions: for kcat: lower limit extrapolated from kcat/Km
T5 construct: His6-ALK^1090-1416; His6 (N); made in house; host or cells: Sf9 insect cells
T5 sequence (Q9UM73 1090-1416): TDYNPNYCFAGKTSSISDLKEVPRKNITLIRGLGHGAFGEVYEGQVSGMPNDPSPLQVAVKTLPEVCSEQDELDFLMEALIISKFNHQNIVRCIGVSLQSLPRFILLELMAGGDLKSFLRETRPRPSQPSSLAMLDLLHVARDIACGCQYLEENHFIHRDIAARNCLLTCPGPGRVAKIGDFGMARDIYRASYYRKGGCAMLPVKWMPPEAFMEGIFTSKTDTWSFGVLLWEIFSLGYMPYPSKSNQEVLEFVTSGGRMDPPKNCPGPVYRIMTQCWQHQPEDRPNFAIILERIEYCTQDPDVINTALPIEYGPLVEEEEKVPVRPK
Description: as §2, §1, §3

[7] = target: T6, EGFR (His6-EGFR 672-998) (Homo sapiens, UniProt P00533); experiment: as above; conditions: for kcat: lower limit extrapolated from kcat/Km
T6 construct: His6-EGFR^672-998; His6 (N); made in house; host or cells: Sf9 insect cells
Description: as §2, §1, §3

[8] = target: T7, BTK (Homo sapiens, UniProt Q06187); experiment: as above; conditions: for kcat: mean ± sem of fits
T7 construct: GST; made in house; host or cells: HEK293T cells
T7 sequence (Q06187 whole entry, species assumed): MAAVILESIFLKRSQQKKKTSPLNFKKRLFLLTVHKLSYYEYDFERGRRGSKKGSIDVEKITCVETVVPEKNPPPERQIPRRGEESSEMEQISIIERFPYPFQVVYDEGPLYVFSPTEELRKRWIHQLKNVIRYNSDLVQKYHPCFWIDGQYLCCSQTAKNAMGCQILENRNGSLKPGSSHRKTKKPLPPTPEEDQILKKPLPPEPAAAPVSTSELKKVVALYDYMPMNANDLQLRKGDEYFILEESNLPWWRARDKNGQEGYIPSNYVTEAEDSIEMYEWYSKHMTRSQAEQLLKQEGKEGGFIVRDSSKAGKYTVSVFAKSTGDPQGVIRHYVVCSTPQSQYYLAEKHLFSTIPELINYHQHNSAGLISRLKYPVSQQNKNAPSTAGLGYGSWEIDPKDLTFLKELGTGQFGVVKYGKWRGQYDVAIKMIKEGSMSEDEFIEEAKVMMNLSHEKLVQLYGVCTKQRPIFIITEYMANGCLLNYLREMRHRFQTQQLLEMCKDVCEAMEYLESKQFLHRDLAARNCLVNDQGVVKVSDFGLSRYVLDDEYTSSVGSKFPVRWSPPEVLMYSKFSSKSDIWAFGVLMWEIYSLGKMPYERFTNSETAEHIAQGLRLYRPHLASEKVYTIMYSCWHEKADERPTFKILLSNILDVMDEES
Description: as §2, §1, §3

[9] = lower limit extrapolated from kcat/Km
[10] = peptide 2 relative to peptide 5

Compound | phosphorylation by the panel of PTKs [1] | kcat ([2]; mean ± sem of fits) [s⁻¹] | kcat [3] [s⁻¹] | kcat [4, 9] [s⁻¹] | kcat [5] [s⁻¹] | kcat [6] [s⁻¹] | kcat [7] [s⁻¹] | kcat [8] [s⁻¹] | average phosphorylation across the kinase panel [1] | kcat [2, 9] [s⁻¹] | 2/5 kcat/Km ratio [2, 10] | 2/5 kcat/Km ratio [3, 10] | 2/5 kcat/Km ratio [4, 10] | 2/5 kcat/Km ratio [5, 10] | 2/5 kcat/Km ratio [6, 10] | 2/5 kcat/Km ratio [7, 10] | 2/5 kcat/Km ratio [8, 10]
DEPIYDTVEGGKbiotinGG (DEPIYDTVEGGK(Biotin)GG) [Peptide 6] | phosphorylated by every PTK tested | – | – | – | – | – | – | – | – | – | – | – | – | – | – | – | –
CC[C@H](C)[C@H](NC(=O)[C@H](C)NC(=O)[C@H](CCC(=O)O)NC(=O)[C@@H](N)CC(=O)O)C(=O)N[C@@H](Cc1ccc(O)cc1)C(=O)N[C@@H](C)C(=O)N[C@H](C(=O)N[C@H](C(=O)N[C@@H](C)C(=O)NCC(=O)NCC(=O)N[C@@H](CCCCNC(=O)CCCC[C@@H]1SC[C@@H]2NC(=O)N[C@@H]21)C(=O)NCC(=O)NCC(N)=O)C(C)C)[C@@H](C)O [Peptide 5] (H-DEAIYATVAGGK(Biotin)GG-NH2) | phosphorylated by every PTK tested | 16.5 ± 3.5 | >2 | >0.1 | 0.014 ± 0.004 | >0.02 | >0.001 | 0.26 ± 0.08 | highest average rate of phosphorylation across the entire panel of kinases; also recorded: highest phosphorylation averaged across the kinase panel | – | – | – | – | – | – | – | –
CC[C@H](C)[C@H](NC(=O)[C@@H]1CCCN1C(=O)[C@H](CC(=O)O)NC(=O)[C@@H](N)CCC(=O)O)C(=O)N[C@@H](Cc1ccc(O)cc1)C(=O)N[C@H](C(=O)N[C@H](C(=O)N[C@@H](CC(C)C)C(=O)N[C@@H](CCC(=O)O)C(=O)NCC(=O)NCC(=O)N[C@@H](CCCCNC(=O)CCCC[C@@H]1SC[C@@H]2NC(=O)N[C@@H]21)C(=O)NCC(=O)NCC(N)=O)[C@@H](C)O)C(C)C [Peptide 2] (H-EDPIYVTLEGGK(Biotin)GG-NH2) | phosphorylated by every PTK tested | – | >40 | – | 0.013 ± 0.004 | >0.02 | >0.005 | 0.061 ± 0.019 | highest average rate of phosphorylation across the entire panel of kinases; also recorded: highest phosphorylation averaged across the kinase panel | >4 | 0.13 ± 0.01 | 0.52 ± 0.07 | 1.8 ± 0.2 | 1.43 ± 0.07 | 1.23 ± 0.02 | 5.8 ± 0.2 | 0.31 ± 0.01
